Measured values from patent US10377783B2, “Methods and compounds for enhancing contrast in magnetic resonance imaging (MRI)” (priority 2015, dated 2019).

System: male rat (Sprague Dawley Crl:SD)
Assay: In vivo MRI imaging of 2 and 6, T2-weighted scans
Conditions: for T2-weighted MRI signal intensity, liver: baseline (−10 min) 965; for T2-weighted MRI signal intensity, lean muscle: baseline (−10 min) 2673; for T2-weighted MRI signal intensity, renal cortex: baseline (−10 min) 4759; for T2-weighted MRI signal intensity, renal medulla: baseline (−10 min) 6454; for T2-weighted MRI signal intensity, bladder: baseline (−10 min) 12921; for T2-weighted MRI signal intensity, fat: baseline (−10 min) 14834
Method: Compound 1 (aq., 12.5 mM) was injected intravenously into 2 male rats (Sprague Dawley Crl:SD, 312-338 g) at a dosage of 0.02 mmol/kg following anaesthesia with 5% isoflurane. Compound 2 (aq., 6.25 mM) was injected intravenously into 1 male rat (Sprague Dawley Crl:SD, 349 g) at a dosage of 0.01 mmol/kg following anaesthesia with 5% isoflurane. Compound 6 (aq., 6.25 mM) was injected intravenously into 1 male rat (Sprague Dawley Crl:SD, 341 g) at a dosage of 0.01 mmol/kg following anaesthesia with 5% isoflurane. Anesthesia was maintained at 2-2.5% isoflurane through a nose cone for the duration of the scans. Fast-spin-echo images were collected for 45 mins. immediately post-injection. For compound 1, the DT1-weighted RARE (Rapid Acquisition Relaxation Enhancement) scans were acquired with an echo time of 10 ms, and a repetition time=respiratory cycle duration (˜1100 ms). Both T1- and T2-weighted scans were collected on compounds 2 and 6.
The in vivo contrast potential of compounds 1, 2 and 6 were studied via the collection of fast-spin-echo images for 30-45 minutes immediately following injection of an aqueous solution of each complex. The dosage chosen for 1 was 0.02 mmol/kg (c=[…]) while the dosage chosen for 2 and 6 was 0.01 mmol/kg (c=6.25 mM). Predominantly T1-weighted scans with some T2-weighting were performed on two rats injected with 1.
Both T1- and T2-weighted scans were performed on two rats injected with 2 and its dimeric analogue 6.

[1] = 8 min after injection of 2, 0.01 mmol/kg iv
[2] = 22 min after injection of 2, 0.01 mmol/kg iv
[3] = 37 min after injection of 2, 0.01 mmol/kg iv
[4] = injection of 2, 0.01 mmol/kg iv, first 40 min

**Q.** `CC1=NCCOCCOCCN=C(C)c2cccc1n2.O.O.[Cl-].[Cl-].[Mn+2]` [Compound 2, [MnL2Cl2].2H2O] was tested. Which “T2-weighted MRI signal intensity, liver” value [1] did it give?
**A.** 788 arbitrary units of voxel intensity

**Q.** And the “T2-weighted MRI signal intensity, lean muscle” value [1]?
**A.** 2386 arbitrary units of voxel intensity

**Q.** And the “T2-weighted MRI signal intensity, renal cortex” value [1]?
**A.** 3367 arbitrary units of voxel intensity

**Q.** What about the “T2-weighted MRI signal intensity, renal medulla” value [1] of the same compound?
**A.** 5342 arbitrary units of voxel intensity

**Q.** What about the “T2-weighted MRI signal intensity, bladder” value [1] of the same compound?
**A.** 7977 arbitrary units of voxel intensity

**Q.** And the “T2-weighted MRI signal intensity, fat” value [1]?
**A.** 14550 arbitrary units of voxel intensity

**Q.** What about the “T2-weighted MRI signal intensity, liver” value [2] of the same compound?
**A.** 577 arbitrary units of voxel intensity

**Q.** And the “T2-weighted MRI signal intensity, lean muscle” value [2]?
**A.** 2451 arbitrary units of voxel intensity

**Q.** What about the “T2-weighted MRI signal intensity, renal cortex” value [2] of the same compound?
**A.** 3307 arbitrary units of voxel intensity

**Q.** And the “T2-weighted MRI signal intensity, renal medulla” value [2]?
**A.** 5306 arbitrary units of voxel intensity

**Q.** And the “T2-weighted MRI signal intensity, bladder” value [2]?
**A.** 667 arbitrary units of voxel intensity

**Q.** What about the “T2-weighted MRI signal intensity, fat” value [2] of the same compound?
**A.** 12923 arbitrary units of voxel intensity

**Q.** What about the “T2-weighted MRI signal intensity, liver” value [3] of the same compound?
**A.** 400 arbitrary units of voxel intensity

**Q.** What about the “T2-weighted MRI signal intensity, lean muscle” value [3] of the same compound?
**A.** 2377 arbitrary units of voxel intensity

**Q.** And the “T2-weighted MRI signal intensity, renal cortex” value [3]?
**A.** 3034 arbitrary units of voxel intensity

**Q.** What about the “T2-weighted MRI signal intensity, renal medulla” value [3] of the same compound?
**A.** 4215 arbitrary units of voxel intensity

**Q.** And the “T2-weighted MRI signal intensity, bladder” value [3]?
**A.** 512 arbitrary units of voxel intensity

**Q.** And the “T2-weighted MRI signal intensity, fat” value [3]?
**A.** 13440 arbitrary units of voxel intensity

**Q.** What about the “Max. intensity change, T2-weighted, bladder” value [4] of the same compound?
**A.** −96%

**Q.** What about the “Max. intensity change, T2-weighted, fat” value [4] of the same compound?
**A.** −13%

**Q.** And the “Max. intensity change, T2-weighted, lean muscle” value [4]?
**A.** −11%

**Q.** And the “Max. intensity change, T2-weighted, liver” value [4]?
**A.** −59%

**Q.** What about the “Max. intensity change, T2-weighted, renal cortex” value [4] of the same compound?
**A.** −36%

**Q.** What about the “Max. intensity change, T2-weighted, renal medulla” value [4] of the same compound?
**A.** −35%
